Assay [1] deals with rat liver ischemia reperfusion hepatopathy model. Kind of assay: Therapeutic effect on rat liver ischemia reperfusion hepatopathy model. It counts as in vivo. The source says: Therapeutic Effect on Rat Liver Ischemia Reperfusion Hepatopathy Model
The therapeutic effect of the compound 1 on rat hepatopathy model induced by partially subjecting the liver to ischemia reperfusion was examined.
(1) The compound 1 was used as a drug formulation. The formulation composition (content per one vial) was as follows.
(2) Crj:SD (IGS) male rats (7 weeks old) (Charles River Japan, Inc.) were anesthetized with ether, and while maintaining them anesthetized with gas-oxygen fluothane, the above drug formulation of the compound 1 diluted with 5% glucose (Lot. 9I78N, manufactured by Otsuka Pharmaceutical Factory, Inc.) so that the dose would be 10 mg/kg/hr as calculated as anhydride of the compound 1, was subcutaneously administered singly. Then, an osmotic pump (alzet osmotic pump 2001D, ALZA CORPORATION, U.S.A.) in which the above drug formulation of the compound 1 diluted with 5% glucose (Lot. 9I78N, manufactured by Otsuka Pharmaceutical Factory, Inc.) so that the dose would be 0.3 mg/kg/hr as calculated as anhydride of the compound 1 was put, was embedded in the dorsal cervical subcutaneous. To non-treated group rats, 5% glucose alone was administered similarly. […] The abdomen was closed, the rats were awaked, and after 90 minutes, the abdomen was opened up again under the above-described anesthesia, the clamp was removed and the rats were subjected to reperfusion. To pseudo-induced group rats, operation except for the ischemia reperfusion treatment was carried out. The abdomen was closed and the rats were awaked, and 6 hours after the reperfusion, aspartate aminotransferase (AST) and alanine aminotransferase (ALT), lactate dehydrogenase (LDH) and total bilirubin values in the blood serum were measured.

In assay [2] the test system is acetaminophen (APAP) induced mouse hepatopathy model. Kind of assay: Therapeutic effect on mouse acetaminophen hepatopathy model. In kind it is in vivo. An excerpt:
Therapeutic Effect on Mouse Acetaminophen Hepatopathy Model
The therapeutic effect of N-(2-ethylsulfonylamino-5-trifluoromethyl-3-pyridyl)cyclohexanecarboxamide sodium salt hydrate (hereinafter referred to as compound 1) on acetaminophen (APAP) induced mouse hepatopathy model was examined.
To Crj: CD-1(ICR) male mice (6 weeks old) (Charles River Japan Inc.), APAP (Lot. No. 107H0332, manufactured by Sigma) dissolved with physiological saline (Lot No. 80909D manufactured by Fuso Pharmaceutical Industries, Ltd.) was intraperitoneally administered in an amount of the active ingredient of 300 mg/kg to induce hepatopathy. 3 Hours after the administration of APAP, the compound 1 dissolved in physiological saline was singly administered subcutaneously on the back in an amount of the active ingredient of 10 mg/kg. To non-treated group mice, physiological saline was similarly administered. 6 Hours after the administration of APAP, the blood was collected, and glutamic-oxaloacetic transaminase (GOT) and glutamic-pyruvic transaminase (GPT) values in the blood serum were measured.
In the present test, mice were kept on a fast from 20 hours before the administration of APAP until the completion of the test.

Setting [3] is: Crj:SD (IGS) male rats, 90 minutes ischemia of about 70% of liver, 10 mg/kg/hr s.c. singly then 0.3 mg/kg/hr by osmotic pump, 6 hours after reperfusion, N = 10.
Where [4] appears, read: Crj:CD-1(ICR) male mice, APAP 300 mg/kg i.p., 10 mg/kg s.c. single dose 3 hours after APAP, blood 6 hours after APAP, N = 5.

As for `CCS(=O)(=O)Nc1ncc(C(F)(F)F)cc1NC(=O)C1CCCCC1.O.[Na]` [compound 1, N-(2-ethylsulfonylamino-5-trifluoromethyl-3-pyridyl)cyclohexanecarboxamide sodium salt hydrate], in assay [1] (setting [3]), the “ALT (GPT) in blood serum (mean)” value was found to be 5436 IU/L, the “AST (GOT) in blood serum (mean)” value came to 8669 IU/L, the “LDH in blood serum (mean)” value came to 29601 IU/L and the “Total bilirubin in blood serum (mean)” value came to 0.299 mg/dL. Moreover, the “Effect on hepatopathy (increases in biochemical examination values), in words” value in assay [1] (rat ischemia reperfusion hepatopathy model, versus non-treated group) is given as “alleviated”. Moreover, in assay [2] (setting [4]), the “GOT in blood serum (mean ± standard deviation)” value came out at 530 ± 212 IU/L and the “GPT in blood serum (mean ± standard deviation)” value is recorded as 807 ± 603 IU/L. Besides, the “Effect on hepatopathy (increases in biochemical examination values), in words” value in assay [2] (acetaminophen induced mouse hepatopathy model, 10 mg/kg s.c., versus non-treated group) is listed as “hepatopathy was alleviated”.

Source of the values: patent US6664279B2, “Remedies or preventives for liver diseases containing diaminotrifluoromethylpyridine derivatives” (Ishihara Sangyo Kaisha, Ltd., priority 2000, dated 2003).
